Like-named read-outs stand apart in the source and are kept apart here.
Columns and labels:
Format in all cases: in vivo
[1] = tested on: foot mucosa of slugs of species Arion; details: for ALP released into PBS / LDH released into PBS / Protein released into PBS: 1% w/v (HPβCD 5% w/v), total mean of 7 samples/day per slug
[2] = tested on: foot mucosa of slugs of species Limax; details: for % MP, mucus production as % of the body weight at the start of the day before the treatment: 1% w/v (HPβCD 5% w/v) in PBS, 15 min; for ALP released into PBS / LDH released into PBS / Protein released into PBS: 1% w/v (HPβCD 5% w/v), total mean of 7 samples/day per slug
Protocol: Slugs of the species Limax are terrestial slugs have lungs and also a small internal shell. As test substances hydroxypropyl-β-cyclodextrin (HPβCD), sodium tauro-24,25-dihdrofiisidate (STDHF) and sodium deoxycholate were selected. Benzalkonium chloride (1% w/v), HPβCD (5% w/v), STDHF (1% w/v) and SDC (1% w/v) were prepared in phosphate buffered saline (PBS, pH 7.4).
The enzymes lactate dehydrogenase (LDH) and alkaline phosphatase (ALP) and total protein released into the PBS were determined. The change in body weight and mucus production caused by the treatment were examined.

[3] = tested on: foot mucosa of slugs (species Arion); assay: Slug mucosal toxicity test, Example 1 (15 min daily treatment, five days); details: for % WL, reduction in weight (weight loss) caused by the 15 minute treatment as % of initial body weight of the day / % MP, mucus production as % of the body weight at the start of the day before the treatment: 1% w/v in PBS; for % MP, mucus production as % of the body weight at the start of the day before the treatment / ALP released into PBS / LDH released into PBS / Protein released into PBS: 15 min; for ALP released into PBS / LDH released into PBS / Protein released into PBS: total mean of 7 samples/day per slug
Source text: Initially, the slugs are kept on a culture under controlled conditions of temperature and humidity until they have reached a stable body weight. The purpose of achieving a stable body weight is to improve the reproducibility of the results, particularly as the release of substances from the slugs may conveniently be measured in terms of the body weight thereof. The slugs are then isolated from the culture and placed in a vented plastic box lined with moist paper towel and placed at 95% relative humidity at 20° C. seven days before the start of an experiment. The slugs were not bred in any particular way, i.e. they were wild slugs. It is anticipated that even more accurate and reproducible results can be obtained by selective breeding of the slugs, although as shown by the test results this is not a necessary requirement of the present invention to obtain accurate and useful data.
The test procedure is simple and rapid. The chemical substance to be tested is applied directly to the mucosal membrane of a slug, e.g. to the foot, by placing the slug individually in a petri dish containing the test substance. Slugs treated with phosphate buffered saline are used as a negative control. As a positive control slugs treated with a known toxic substance, benzalkonium chloride, were used.
Because the mucosal epithelium of interest is located at the outside of the slug the effect of substances can be easily observed. […] This can also be simply measured by weighing the petri dish before and after the treatment of the slugs with the chemical substance (with the slugs removed in each case). Additionally an indirect response to epithelial damage caused by a chemical substance may be determined by the reduction of the body weight of the slugs due to the leakage of haemolymphatic fluids through the damaged foot surface.
After the treatment the slugs are transferred individually to a fresh petri dish containing phosphate buffered saline. After a suitable exposure time, e.g. 1 hour the phosphate buffered saline is collected and analysed for the presence of proteins and/or enzymes, e.g. lactate dehydrogenase and/or alkaline phosphatase, or other marker substances released from the foot or epithelium of the slug, for example membrane associated components such as phospholipids or cholesterol. This procedure can be repeated after periods of several hours in order to determine the reversibility of the cell damage caused by the test chemical substance. The concentration or amount of the chemical substance to be tested can be changed and the influence of the concentration can be easily examined. The exposure time can also be changed if required. The slugs can be treated during several successive days in order to investigate the subchronical effect of substances on the foot mucosa.
Seven days before the start of the experiment the slugs were isolated in a plastic box lined with moist paper towel and placed at 95% relative humidity at 20° C. As test substances didecanyol-L-α-phosphatidylcholine (DDPC) and sodium deoxycholate (SDC) were selected. Benzalkonium chloride (1% w/v), SDC (1% w/v) and DDPC (1%, w/v) were prepared in phosphate buffered saline (PBS, pH 7.4). […] During the test the slugs are preferably kept in a generally calm and normal state and are not subjected to mechanical vibrations or mechanical or electrical disturbances which may affect mucus production.
The enzymes (lactate dehydrogenase (LDH) and alkaline phosphatase (ALP)) and total protein released into the PBS were determined. The slugs were weighed before and after the incubation period to determine the body weight changes. The mucus production was measured by weighing the petri dishes before and after the treatment with a test substance. The results are shown in Table 1 and shown graphically in FIGS. 1 to 5.

CC(=O)OC1CC2(C)C(CC(O)C3C4(C)CCC(O)C(C)C4CCC32C)C1=C(CCCC(C)C)C(=O)NCCS(=O)(=O)O (centres unmarked) [STDHF, sodium tauro-24,25-dihdrofiisidate]
ranking order of increasing toxicity ([1]; Arion): PBS, 5% HPβCD<1% STDHF<1% SDC and 1% BAC
LDH release (in words) ([1]; Arion, 1% w/v): slightly increased LDH release
body weight change (in words) ([1]; Arion, 1% w/v): decrease in body weight
mucus production (in words) ([1]; Arion, HPβCD 5% w/v, STDHF 1% w/v): increased mucus production
% MP, mucus production ([1]; day 1, Arion, 1% w/v (HPβCD 5% w/v) in PBS, 15 min): 7.7%
ALP released into PBS ([1]; day 1, Arion): 21.77 U/L
LDH released into PBS ([1]; day 1, Arion): 18.22 U/L
Protein released into PBS ([1]; day 1, Arion): 15.68 μg/30μL
% MP, mucus production ([1]; day 2, Arion, 1% w/v (HPβCD 5% w/v) in PBS, 15 min): 3.85%
ALP released into PBS ([1]; day 2, Arion): 9.39 U/L
LDH released into PBS ([1]; day 2, Arion): 14.44 U/L
Protein released into PBS ([1]; day 2, Arion): 2.84 μg/30μL
% MP, mucus production ([1]; day 3, Arion, 1% w/v (HPβCD 5% w/v) in PBS, 15 min): 3.45%
ALP released into PBS ([1]; day 3, Arion): 8.66 U/L
LDH released into PBS ([1]; day 3, Arion): 24.04 U/L
Protein released into PBS ([1]; day 3, Arion): 2.79 μg/30μL
% MP, mucus production ([1]; day 4, Arion, 1% w/v (HPβCD 5% w/v) in PBS, 15 min): 4.81%
ALP released into PBS ([1]; day 4, Arion): 15.14 U/L
LDH released into PBS ([1]; day 4, Arion): 20.53 U/L
Protein released into PBS ([1]; day 4, Arion): 4.55 μg/30μL
% MP, mucus production ([1]; day 5, Arion, 1% w/v (HPβCD 5% w/v) in PBS, 15 min): 4.41%
ALP released into PBS ([1]; day 5, Arion): 4.81 U/L
LDH released into PBS ([1]; day 5, Arion): 25.65 U/L
Protein released into PBS ([1]; day 5, Arion): 4.18 μg/30μL
ranking order of increasing toxicity ([2]; Limax): PBS, 5% HPβCD<1% STDHF<1% SDC and 1% BAC
LDH release (in words) ([2]; Limax, 1% w/v): slightly increased LDH release
body weight change (in words) ([2]; Limax, 1% w/v): decrease in body weight
mucus production (in words) ([2]; Limax, HPβCD 5% w/v, STDHF 1% w/v): increased mucus production
% MP, mucus production as % of the body weight at the start of the day before the treatment ([2]; day 1, Limax): 6.85%
ALP released into PBS ([2]; day 1, Limax): 3.81 U/L
LDH released into PBS ([2]; day 1, Limax): 1.65 U/L
Protein released into PBS ([2]; day 1, Limax): 14.48 μg/30μL
% MP, mucus production as % of the body weight at the start of the day before the treatment ([2]; day 2, Limax): 6.16%
ALP released into PBS ([2]; day 2, Limax): 6.49 U/L
LDH released into PBS ([2]; day 2, Limax): 4.29 U/L
Protein released into PBS ([2]; day 2, Limax): 11.67 μg/30μL
% MP, mucus production as % of the body weight at the start of the day before the treatment ([2]; day 3, Limax): 7.52%
ALP released into PBS ([2]; day 3, Limax): 5.09 U/L
LDH released into PBS ([2]; day 3, Limax): 6.02 U/L
Protein released into PBS ([2]; day 3, Limax): 6.27 μg/30μL
% MP, mucus production as % of the body weight at the start of the day before the treatment ([2]; day 4, Limax): 6.75%
ALP released into PBS ([2]; day 4, Limax): 3.28 U/L
LDH released into PBS ([2]; day 4, Limax): 18.23 U/L
Protein released into PBS ([2]; day 4, Limax): 10.4 μg/30μL
% MP, mucus production as % of the body weight at the start of the day before the treatment ([2]; day 5, Limax): 6.6%
ALP released into PBS ([2]; day 5, Limax): 3.62 U/L
LDH released into PBS ([2]; day 5, Limax): 10.63 U/L
Protein released into PBS ([2]; day 5, Limax): 10.36 μg/30μL

hydroxypropyl-β-cyclodextrin [HPβCD]
% MP, mucus production ([1]; in vivo): 0%
mucus production (in words) ([1]; in vivo): no mucus production
protein and enzyme release (in words) ([1]; in vivo): low protein and enzyme release
ranking order of increasing toxicity ([1]; in vivo): PBS, 5% HPβCD<1% STDHF<1% SDC and 1% BAC
mucus production (in words) ([2]; in vivo): no mucus production
protein and enzyme release (in words) ([2]; in vivo): low protein and enzyme release
ranking order of increasing toxicity ([2]; in vivo): PBS, 5% HPβCD<1% STDHF<1% SDC and 1% BAC

sodium deoxycholate [SDC]
membrane damage (in words) ([3]; 1% w/v, 15 min daily, five days): severe membrane damage
% WL, reduction in weight (weight loss) caused by the 15 minute treatment as % of initial body weight of the day ([3]; day 1): 12.73%
% MP, mucus production as % of the body weight at the start of the day before the treatment ([3]; day 1): 7.6%
ALP released into PBS ([3]; day 1, 1% w/v): 13.49 U/L
LDH released into PBS ([3]; day 1, 1% w/v): 14.07 U/L
Protein released into PBS ([3]; day 1, 1% w/v): 19.92 μg/30 μL
% WL, reduction in weight (weight loss) caused by the 15 minute treatment as % of initial body weight of the day ([3]; day 2): 12.60%
% MP, mucus production as % of the body weight at the start of the day before the treatment ([3]; day 2): 10.7%
ALP released into PBS ([3]; day 2, 1% w/v): 43.02 U/L
LDH released into PBS ([3]; day 2, 1% w/v): 93.01 U/L
Protein released into PBS ([3]; day 2, 1% w/v): 22.84 μg/30 μL
% WL, reduction in weight (weight loss) caused by the 15 minute treatment as % of initial body weight of the day ([3]; day 3): 8.06%
% MP, mucus production as % of the body weight at the start of the day before the treatment ([3]; day 3): 5.5%
ALP released into PBS ([3]; day 3, 1% w/v): 103.56 U/L
LDH released into PBS ([3]; day 3, 1% w/v): 135.93 U/L
Protein released into PBS ([3]; day 3, 1% w/v): 38.95 μg/30 μL
% WL, reduction in weight (weight loss) caused by the 15 minute treatment as % of initial body weight of the day ([3]; day 4): 11.28%
% MP, mucus production as % of the body weight at the start of the day before the treatment ([3]; day 4): 7.6%
ALP released into PBS ([3]; day 4, 1% w/v): 42.22 U/L
LDH released into PBS ([3]; day 4, 1% w/v): 146.89 U/L
Protein released into PBS ([3]; day 4, 1% w/v): 54.76 μg/30 μL
% WL, reduction in weight (weight loss) caused by the 15 minute treatment as % of initial body weight of the day ([3]; day 5): 8.03%
% MP, mucus production as % of the body weight at the start of the day before the treatment ([3]; day 5): 2.6%
ALP released into PBS ([3]; day 5, 1% w/v): 22.98 U/L
LDH released into PBS ([3]; day 5, 1% w/v): 136.19 U/L
Protein released into PBS ([3]; day 5, 1% w/v): 55.59 μg/30 μL
ranking order of increasing toxicity ([1]; Arion): PBS, 5% HPβCD<1% STDHF<1% SDC and 1% BAC
membrane damage (in words) ([1]; Arion, 1% w/v (SDC data in Table 1, Example 1)): severe membrane damage
reduction in body weight to % of the initial weight ([1]; Arion, 1% w/v, five days (SDC data from Example 1)): about 50%
ranking order of increasing toxicity ([2]; Limax): PBS, 5% HPβCD<1% STDHF<1% SDC and 1% BAC
membrane damage (in words) ([2]; Limax, 1% w/v): severe membrane damage
reduction in body weight to % of the initial weight ([2]; Limax, 1% w/v, five days): about 50%
% MP, mucus production as % of the body weight at the start of the day before the treatment ([2]; day 1, Limax): 11.16%
ALP released into PBS ([2]; day 1, Limax): 11.62 U/L
LDH released into PBS ([2]; day 1, Limax): 9.01 U/L
Protein released into PBS ([2]; day 1, Limax): 10.1 μg/30μL
% MP, mucus production as % of the body weight at the start of the day before the treatment ([2]; day 2, Limax): 10.27%
ALP released into PBS ([2]; day 2, Limax): 3.34 U/L
LDH released into PBS ([2]; day 2, Limax): 13.6 U/L
Protein released into PBS ([2]; day 2, Limax): 15.78 μg/30μL
% MP, mucus production as % of the body weight at the start of the day before the treatment ([2]; day 3, Limax): 13.01%
ALP released into PBS ([2]; day 3, Limax): 2.62 U/L
LDH released into PBS ([2]; day 3, Limax): 26.15 U/L
Protein released into PBS ([2]; day 3, Limax): 18.04 μg/30μL
% MP, mucus production as % of the body weight at the start of the day before the treatment ([2]; day 4, Limax): 19.38%
ALP released into PBS ([2]; day 4, Limax): 6.24 U/L
LDH released into PBS ([2]; day 4, Limax): 85.8 U/L
Protein released into PBS ([2]; day 4, Limax): 35.04 μg/30μL
% MP, mucus production as % of the body weight at the start of the day before the treatment ([2]; day 5, Limax): 8.11%
ALP released into PBS ([2]; day 5, Limax): 28.79 U/L
LDH released into PBS ([2]; day 5, Limax): 145.71 U/L
Protein released into PBS ([2]; day 5, Limax): 88.14 μg/30μL

From patent US6436630B1, “Method for testing the toxicity of chemical substances using gastropods” (priority 1998, dated 2002)
